# Measurements as given in PubChem BioAssay AID1996.
# Conditions: buffer; pH 7.4; 200.0 µM
row,solubility kinetic [µg/mL],SMILES
1,> 55.4,Cc1c(NC(=O)C(C)Oc2cccc(F)c2)c(=O)n(-c2ccccc2)n1C (configuration not stated)
2,> 43.1,CCOc1ccc(NC(=S)NCc2cccnc2)cc1
3,> 53.2,O=C(Nc1ccc(S(=O)(=O)Nc2ncccn2)cc1)c1ccccc1
4,1.7,c1ccc(-c2ccc(CN3CCSCC3)cc2)cc1
5,1.5,O=C(C1CCCCC1)N1CCN(c2nc(-c3ccc(F)cc3)cs2)CC1
6,> 34.5,Cc1cc(F)ccc1NC(=O)c1cccnc1
7,43.9,Cc1csc(NC(=O)CCNC(=O)c2ccccc2Cl)n1
8,< 0.3,Cc1ccc(O)c(NC(=O)c2cc(-c3ccccc3)on2)c1
9,> 44.8,O=C(Cc1ccccc1)N1CCN(c2ccccc2F)CC1
10,10.7,COc1ccc(N2C(=O)c3ccccc3C2=O)cc1
11,14.6,O=C(COc1ncnc2ccccc12)Nc1ccccc1[N+](=O)[O-]
12,51.3,O=C(c1ccccc1F)N1CCCC(C(=O)N2CCc3ccccc3C2)C1 (configuration not stated)
13,4.1,COC(=O)c1ccc(Nc2c([N+](=O)[O-])c(=O)oc3ccccc23)cc1
14,29.2,COc1ccc(NC(=O)CCCc2ccccc2)cc1OC
15,0.3,COc1cccc(NC(=O)Nc2ccc3c(c2)CCC3)c1
16,> 50.2,Cc1cc(C(=O)OCC(=O)N(C)c2ccccc2)c2ccccc2n1
17,9.3,Cc1ccc(NC(=O)c2ccc(Cl)nc2)cc1

row,solubility kinetic [µg/mL],SMILES
1,> 32.3,Cn1cccc1C(=O)NCc1ccccn1
2,2.9,COc1ccccc1Cn1c(=O)oc2ccc(C)cc21
3,0.5,COc1ccc(-c2csc(NC(=O)c3ccccc3F)n2)cc1
4,55.8,COc1ccccc1OCCC(=O)OCC(=O)Nc1ccc2c(c1)OCCO2
5,> 43.1,Cc1cc(C(=O)NC(Cc2ccccc2)C(=O)O)c(C)o1 (configuration not stated)
6,18.1,CC(OC(=O)c1ccc2c(c1)NC(=O)CS2)C(=O)c1ccc(F)cc1 (configuration not stated)
7,0.4,COc1ccc(/C=N/OCc2ccccc2C#N)c(OC)c1
8,3.1,CCOc1ccccc1NC(=O)COC(=O)/C=C/c1cccs1
9,1.6,CCOCCOc1cccc(C(=O)NC(C)c2ccc3ccccc3c2)c1 (configuration not stated)
10,> 59,COc1ccccc1C(=O)NCC(=O)N1CCN(C/C=C/c2ccccc2)CC1
11,> 42.9,O=C(OCc1nc2ccsc2c(=O)[nH]1)c1ccccc1
12,> 50.4,O=c1c2[nH]cnc2n(-c2ccc(F)cc2)c(=O)n1Cc1ccccc1
13,0.4,COc1ccc([N+](=O)[O-])cc1NC(=O)c1ccccc1SC
14,< 0.4,CCC1CN(C(=O)NCc2ccccc2)c2cc(Cl)ccc2O1 (configuration not stated)
15,23.8,O=C(O)c1ccccc1NCc1cccs1
16,31.8,CCN(Cc1ccccc1)C(=O)c1cc2c(OC)c(OC)c(OC)cc2[nH]1

# The next lines start with the compound.
row,SMILES,solubility kinetic [µg/mL]
1,O=C(/C=C/c1cccc([N+](=O)[O-])c1)Nc1ccccn1,0.7
2,C=CCN1CCN(C(=O)c2c(-c3ccccc3)noc2C)CC1,> 46.7
3,Cc1cccc(N2CCN(C(=O)c3cc4cc(F)ccc4[nH]3)CC2)c1C,0.6
4,N#Cc1ccc(CSc2nc(N)cc(=O)[nH]2)cc1,> 38.7
5,Cc1cccc(NC(=O)NCC2CC2)c1,> 30.6
6,Cc1ccc(NC(=O)C2CCCN2C(=O)OC(C)(C)C)cc1C (configuration not stated),> 47.8
7,O=C(CCCc1ccccc1)N1CCN(C2CCCCC2)CC1,46.6
8,COc1c(S(=O)(=O)N2CCN(C)CC2)ccc(Cl)c1Cl,45.6
9,CCCN(CC1CC1)C(=O)CSc1ncnc2sccc12,> 48.2
10,CCC1(CC)Cc2ccccc2-c2nc(CN(C)C)[nH]c(=O)c21,10.8
11,CN(C(=O)/C=C/c1ccc(F)cc1)C1CCCCC1,> 39.2
12,Cn1c(N)c(C(=O)CSc2nnc(N)s2)c(=O)n(C)c1=O,> 49.3
13,CCOc1ncccc1C(=O)Nc1nnc(C2CC2)s1,> 43.6
14,O=C(COC(=O)c1ccc(Br)o1)Nc1cccc(S(=O)(=O)N2CCOCC2)c1,59.2
15,Cn1c(Cl)c(/C=N/OC(=O)C2CC2)c2ccccc21,2.7
16,CC1CC(C)CN(C(=O)CCNC(=O)c2ccccc2Cl)C1 (configuration not stated),47.7
17,CC(C)CCN1CCN(C2CSCCSC2)CC1CCO (configuration not stated),> 49.9
18,CC(NS(=O)(=O)c1ccc2[nH]c(=O)c(=O)[nH]c2c1)C(=O)O (configuration not stated),13.9
19,O=C(CC12CC3CC(CC(C3)C1)C2)NC1CC1,30
20,CC(C)(C)c1ccc(C(=O)NC(=S)NCc2ccco2)cc1,0.6
21,CCOC(=O)CC1C(=O)NCCN1Cc1ccc(OC)c(OC)c1 (configuration not stated),> 50.5
22,S=c1[nH]ccn1CCc1ccccc1,22.7
23,Nc1ccc(Oc2ccc3c(c2)C(=O)N(CC2CCCO2)C3=O)cc1 (configuration not stated),> 50.8
24,COc1ccc(OC(C)C(=O)NC2CCCCCC2)cc1 (configuration not stated),40
25,N#CCNC1CC(=O)N(c2ccccc2)C1=O (configuration not stated),> 34.4
26,CC1=C(C(=O)OCC2CCCCC2)C(c2cccc(O)c2)NC(=O)N1 (configuration not stated),37.3
27,CNC(=S)Nc1cc(C)ccc1OC(F)F,> 36.9

row,SMILES,solubility kinetic [µg/mL]
1,N#CCCN(C(=S)NC(=O)C1CCCCC1)c1ccccc1F,> 50
2,Nc1nccc(-c2cc(-c3ccc(Cl)cc3Cl)no2)n1,0.7
3,COc1ccc2cc(S(=O)(=O)N3CCCC3)ccc2c1,3.5
4,CCCn1c(=O)c(C(=O)NCc2ccco2)c(O)c2ccccc21,< 0.3
5,O=Cc1c(NCCCN2CCCC2=O)c2ccccc2[nH]c1=O,> 47
6,CC1CC(=O)Nc2ccccc2N1S(=O)(=O)c1cccs1 (configuration not stated),17
7,Cc1ncc([N+](=O)[O-])n1CCOC(=O)C12CC3CC(CC(C3)C1)C2,5.3
8,O=C(CCN1C(=O)C2CC=CCC2C1=O)Nc1nccs1 (configuration not stated),> 45.8
9,C/C(N)=C(/C#N)C(=O)COC(=O)c1cccc(O)c1,> 39
10,CC(C)(C)N(Cc1ccccc1)C(=O)c1ccncc1,> 40.3
11,Cc1ccsc1C(=O)N(C)C1CCS(=O)(=O)C1 (configuration not stated),> 41
12,O=C(O)c1cc(=O)[nH]c2c(Cl)cccc12,> 33.5
13,COc1ccc(CNC(=O)C2CC(C)=CCC2C(=O)O)cc1 (configuration not stated),> 45.5
14,O=c1c2cc([N+](=O)[O-])ccc2nc2n1CCCC2,> 36.8
15,Cl.OC(COCc1ccc(Cl)cc1)CN1CCCCC1 (configuration not stated),46.4
16,COC(=O)c1cc(OC)nc2ccc(Br)cc12,< 0.6
17,O=C(N/N=C/c1ccncc1)NC1CCCCC1,> 36.9
18,Cc1nn(C)c(C)c1NC(=O)CCl.Cl,> 35.7
19,O=C(CSc1ccc([N+](=O)[O-])cc1)Nc1ccccc1N1CCOCC1,4.9
20,CCOc1ccc(C2NC(=O)NC(C)=C2[N+](=O)[O-])cc1OC (configuration not stated),45.5
21,CCC(=O)NCc1ccc2[nH]c(C)cc2c1,32.3
22,Cc1cccc(C(=O)NCC(C)NC(=O)c2cccc(C)c2)c1 (configuration not stated),23.7
23,O=S(=O)(Nc1ccccc1N1CCCCC1)c1ccc(F)cc1,2.5
24,O=[N+]([O-])c1ccccc1-c1ccc(C(=S)N2CCCCC2)o1,11.8
25,Cc1ccc(CNC(=O)CNC(=O)c2ccc(Br)o2)cc1,14.6
26,Cc1cccc(NC(=O)c2ccc(N3CCOCC3)c([N+](=O)[O-])c2)n1,38.1
27,CCN1CCN(CCC(=O)Nc2cccc(C)c2)CC1.Cl,46.4
